Calls of active or inactive are those of the source. The calls are words filed in the database; no cut-off is given here.
What was measured:
BV-2 [1] = assay: Antiinflammatory activity against LPS-induced mouse BV-2 cells assessed as inhibition of NO production at 0.001 to 1 uM pretreated for 6 hrs followed by LPS stimulation for 24 hrs by Griess assay; assay type: functional, cell-based; conditions: dose 0.001-1 µM, time 30.0 hrs
Mus musculus [2] = assay: (§1) Antiinflammatory activity against LPS-induced neuroinflammation C57BL/6N mouse model assessed as reduction of glial cell reactivity by measuring reduction in IBA1 expression in hippocampus CA3 region at 20 mg/kg/day, po administered for 3 days followed by LPS administration for 7 days by immunofluorescence staining based analysis; assay type: functional, organism-based; conditions: time 10.0 day
[3] = molecular target: T1, Nuclear factor erythroid 2-related factor 2 (Mus musculus) (UniProt Q60795); assay: Activation of Nrf2 in mouse BV-2 cells assessed as increase in Nrf2 nuclear translocation at 3 uM measured upto 9 hrs by immunoblot analysis relative to control; assay type: subcellular; conditions: Nucleus
T1 sequence (whole entry): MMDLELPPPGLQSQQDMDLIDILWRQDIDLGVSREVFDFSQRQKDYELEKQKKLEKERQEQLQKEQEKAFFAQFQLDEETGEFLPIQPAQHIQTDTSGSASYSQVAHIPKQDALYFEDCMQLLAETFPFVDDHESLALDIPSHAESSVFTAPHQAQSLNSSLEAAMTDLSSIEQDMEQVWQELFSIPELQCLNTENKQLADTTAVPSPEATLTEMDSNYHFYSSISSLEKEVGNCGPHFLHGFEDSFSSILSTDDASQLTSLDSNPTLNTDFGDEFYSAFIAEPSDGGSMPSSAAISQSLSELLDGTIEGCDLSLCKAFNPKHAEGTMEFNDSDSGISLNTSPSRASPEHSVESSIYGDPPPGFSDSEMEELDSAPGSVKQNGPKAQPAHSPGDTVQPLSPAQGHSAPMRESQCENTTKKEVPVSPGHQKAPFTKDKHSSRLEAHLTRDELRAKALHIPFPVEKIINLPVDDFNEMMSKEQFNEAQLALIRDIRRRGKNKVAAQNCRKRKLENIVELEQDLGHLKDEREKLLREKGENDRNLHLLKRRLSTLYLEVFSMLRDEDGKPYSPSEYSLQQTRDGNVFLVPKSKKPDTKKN

Mus musculus [4] = assay: as §1, with “CA1” for “CA3”; assay type: functional, organism-based; conditions: time 10.0 day
BV-2 [5] = assay: Antiinflammatory activity against LPS-induced mouse BV-2 cells assessed as inhibition of TNF-alpha production at 0.1 to 3 uM pretreated for 6 hrs followed by LPS stimulation for 24 hrs by ELISA; assay type: functional, cell-based; conditions: dose 0.1-3 µM, time 30.0 hrs
Mus musculus [6] = assay: as §1, with “GFAP” for “IBA1”, “cortex” for “hippocampus CA3 region”; assay type: functional, organism-based; conditions: time 10.0 day
CYP3A4 = CYP3A4 (Homo sapiens, UniProt P08684); assay: Inhibition of CYP3A4 (unknown origin) assessed as enzyme activity at 10 uM relative to control; assay type: ADME; parameters: scale not given: the % may be the effect or the level left; conditions: read-out: Activity
Chain of CYP3A4 (P08684 whole entry): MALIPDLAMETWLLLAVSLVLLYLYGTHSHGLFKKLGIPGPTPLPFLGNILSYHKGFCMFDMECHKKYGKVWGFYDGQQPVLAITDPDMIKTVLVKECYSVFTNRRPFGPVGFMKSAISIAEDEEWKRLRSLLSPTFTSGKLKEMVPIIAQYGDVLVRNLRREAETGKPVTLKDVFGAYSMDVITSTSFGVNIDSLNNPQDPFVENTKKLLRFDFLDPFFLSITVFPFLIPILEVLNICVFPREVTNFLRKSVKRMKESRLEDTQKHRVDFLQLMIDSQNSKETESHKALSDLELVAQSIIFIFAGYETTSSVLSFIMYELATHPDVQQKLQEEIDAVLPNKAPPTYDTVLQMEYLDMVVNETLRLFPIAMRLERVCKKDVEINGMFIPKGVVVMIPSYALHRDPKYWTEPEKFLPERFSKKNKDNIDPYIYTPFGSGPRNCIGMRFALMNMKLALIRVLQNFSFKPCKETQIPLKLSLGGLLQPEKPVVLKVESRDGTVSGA

BV-2 [7] = assay: Antiinflammatory activity against LPS-induced mouse BV-2 cells assessed as inhibition of IL-6 mRNA expression at 0.03 to 3 uM pretreated for 6 hrs followed by LPS stimulation for 6 hrs by qRT-PCR analysis; assay type: functional, cell-based; conditions: dose 0.03-3 µM, time 12.0 hrs
[8] = molecular target: T1, Nuclear factor erythroid 2-related factor 2 (Mus musculus); assay: Activation of Nrf2 in mouse BV-2 cells assessed as increase in Gclm mRNA expression incubated for 3 hrs by qRT-PCR analysis; assay type: cell-based; conditions: filed as activator, dose 0.01-3 µM
[9] = molecular target: T1, Nuclear factor erythroid 2-related factor 2 (Mus musculus); assay: Activation of Nrf2 in mouse BV-2 cells assessed as increase in HO-1 protein expression at 3 uM measured after 9 hrs by immunoblot analysis; assay type: cell-based; conditions: filed as activator
[10] = molecular target: T1, Nuclear factor erythroid 2-related factor 2 (Mus musculus); assay: Activation of Nrf2 in mouse BV-2 cells assessed as increase in Nrf2 level in whole cell lysates at 3 uM measured after 3 hrs by immunoblot analysis; assay type: subcellular; conditions: filed as activator
[11] = Metabolic stability of the compound in mouse liver microsomes assessed as parent compound remaining measured after 30 mins; assay type: ADME, Microsome; conditions: read-out: Stability
Mus musculus [12] = assay: Antiinflammatory activity against LPS-induced neuroinflammation C57BL/6N mouse model assessed as inhibition of TNF-alpha production in plasma at 20 mg/kg/day, po administered for 3 days followed by LPS administration for 7 days by ELISA; assay type: functional, organism-based; conditions: time 10.0 day
[13] = molecular target: T1, Nuclear factor erythroid 2-related factor 2 (Mus musculus); assay: Activation of Nrf2 in mouse BV-2 cells assessed as increase in Nrf2 level in whole cell lysates at 3 uM measured after 48 hrs by immunoblot analysis; assay type: subcellular
[14] = molecular target: T1, Nuclear factor erythroid 2-related factor 2 (Mus musculus); assay: Activation of Nrf2 in mouse BV-2 cells assessed as increase in GCLM protein expression measured after 12 hrs by immunoblot analysis; assay type: cell-based; conditions: filed as activator, dose 0.01-3 µM
[15] = molecular target: T1, Nuclear factor erythroid 2-related factor 2 (Mus musculus); assay: Activation of Nrf2 in mouse BV-2 cells assessed as increase in HO-1 protein expression measured after 9 hrs by immunoblot analysis; assay type: cell-based; conditions: filed as activator, dose 0.01-3 µM
CYP1A2 = molecular target: T2, CYP1A2 (Homo sapiens, UniProt P05177); assay: Inhibition of CYP1A2 (unknown origin) assessed as enzyme activity at 10 uM relative to control; assay type: ADME; parameters: scale not given: the % may be the effect or the level left; conditions: read-out: Activity
T2 sequence (P05177 whole entry): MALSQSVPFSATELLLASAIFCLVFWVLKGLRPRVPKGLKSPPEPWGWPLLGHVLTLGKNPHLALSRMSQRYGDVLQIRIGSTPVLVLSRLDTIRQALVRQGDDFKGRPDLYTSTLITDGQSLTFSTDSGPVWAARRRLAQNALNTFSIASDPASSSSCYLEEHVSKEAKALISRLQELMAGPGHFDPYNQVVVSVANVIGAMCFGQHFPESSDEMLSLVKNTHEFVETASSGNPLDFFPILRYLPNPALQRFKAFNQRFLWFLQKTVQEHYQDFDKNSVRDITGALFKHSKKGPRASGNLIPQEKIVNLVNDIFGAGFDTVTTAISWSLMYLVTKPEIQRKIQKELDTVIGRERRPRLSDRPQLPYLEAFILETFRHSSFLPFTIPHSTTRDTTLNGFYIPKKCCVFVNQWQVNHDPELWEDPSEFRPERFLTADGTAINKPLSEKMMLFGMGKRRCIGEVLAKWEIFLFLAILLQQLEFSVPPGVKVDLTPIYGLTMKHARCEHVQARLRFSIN

Question: With `COc1cccnc1S(=O)(=O)/C=C/c1ncccc1Cl` as the compound, how does the Activity (BV-2 [1]) read?
Answer: Active

Question: And the Activity (Mus musculus [2])?
Answer: Active

Question: And the fold change (FC) [3]?
Answer: > 7

Question: And the Activity (Mus musculus [4])?
Answer: Active

Question: What about the Activity (BV-2 [5]) of the same compound?
Answer: Active

Question: And the Activity (Mus musculus [6])?
Answer: Active

Question: And the activity at 10 µM (CYP3A4)?
Answer: 77.1%

Question: What about the Activity (BV-2 [7]) of the same compound?
Answer: Active

Question: And the Activity [8]?
Answer: Dose-Dependent Effect

Question: And the Activity [9]?
Answer: Active

Question: And the Activity [10]?
Answer: Active

Question: And the remaining at 0.5 h [11]?
Answer: 61%

Question: And the Activity (Mus musculus [12])?
Answer: Active

Question: What about the Activity [13] of the same compound?
Answer: inactive

Question: And the Activity [14]?
Answer: Dose-Dependent Effect

Question: And the Activity [15]?
Answer: Dose-Dependent Effect

Question: What about the activity at 10 µM (CYP1A2) of the same compound?
Answer: 84.9%

From ChEMBL document CHEMBL5370549, “Optimization and evaluation of pyridinyl vinyl sulfones as Nrf2 activator for the antioxidant and anti-inflammatory effects” (Eur J Med Chem, 2023)
